Reference: patent US20220040141A1, “ULTRAPURE PHENOL COMPOSITIONS” (priority 2018, published 2022)

Tests used:
[1] = Earlier CBD products (isolate powder, liquid CBD/vitamin E mixture, MCT emulsion) as used orally; type: in vivo; details: particularly relieving stiffness in joints
Excerpt: Prior to preparing the compositions described herein, other CBD products were made, which include food products, including beverages, and mixtures with multiple components, such as an oil/liquid form that is taken directly from a dropper. The products can be flavored. A CBD isolate powder, which is a high purity CBD, can have powerful, and instant benefits. A water soluble CBD/vitamin E mixture can be included in food and drink such as cold pressed juice. […] However, the powder was difficult to work with and dose.
(§1) By mixing with fractionated coconut oil, or medium-chain triglyceride (MCT), a stable emulsion can be formed, which simplifies oral administration of CBD. Some products can mix the full spectrum CBD oil with alcohol or MCT oil, which is known as a tincture. […] For example, a batch of CBD/MCT oil was made using a ratio of 100 mg/ml, which allowed delivery as a spray to the mouth of 20 mg CBD per spray (one spray per serving). In another experiment, a second batch of oil targeted at 33 mg/ml, which targeted 6-7 mg per spray (2-3 sprays per serving). Performance can continue to be less impressive than the CBD powder.

[2] = Physical properties of CBD and its oil compositions; type: physicochemical; details: isolate powder, about 99% pure CBD
Excerpt: The highest purity CBD is known as an isolate. The clear oil, or distillate, goes through another purification process, where it is converted into powder using a solvent, for example, hexane, at low heat.
as §1

[3] = increase of 1 mMol in plasma caprylic acid levels; cited from earlier work

In the case of C=C(C)[C@@H]1CCC(C)=C[C@H]1c1c(O)cc(CCCCC)cc1O [CBD isolate powder, cannabidiol], the anti-inflammatory effect [1] is reported as “exhibited anti-inflammatory properties” and the water solubility [2] is reported as “not water soluble”.
For CCCCCCCC(=O)O [caprylic acid], the “increase of ketone body production” value [3] is listed as “five-fold”.
